According to patent US11000485B2, “Substituted hydroxystilbenes as AhR and Nrf2 modulators and their therapeutic applications” (Resolvex Pharmaceuticals Inc., priority 2017, dated 2021):
pIC50: −log10 of the molar value.

Key:
[1] = test system: Jurkat cells; assay: Cell viability (MTS); assay type: cell-based; details: 48 hours
Protocol: (§1) Cells were cultured in RPMI-1640 containing 10% FBS (Jurkat and THP-1) or DMEM containing 10% FBS (A549 and MDA-MB-435). On Day 1, 1-5×10^4 cells per well in 100 μL of the cell culture medium containing 0.5% FBS were seeded into a 96-well flat bottom plate. On Day 2, the test compounds were added to the culture at different concentrations in triplicates. The controls include triplicates of no compound treatment and cell culture medium without cells. The cells were incubated at 5% CO2, 37° C. for 48 hours. On Day 4, MTS reagent was added to each well and incubated at 37° C. for 4 hours. The absorbance was read at 490 nm. The percentage of inhibition was calculated using the formula: [1-(experiment reading-background reading)/(negative control reading-background reading)]×100.

[2] = test system: MDA-MB-435 cells; assay: Cell viability (MTS); assay type: cell-based; details: 48 hours
Protocol: as §1

[3] = test system: THP1 cells; assay: Cell viability (MTS); assay type: cell-based; details: 48 hours
Protocol: as §1

[4] = test system: Jurkat cells; assay: Cell proliferation ([3H]-thymidine); assay type: cell-based; details: 48 hours, read-out: Anti-proliferation IC50, Jurkat
Protocol: (§2) Cells were cultured in RPMI-1640 containing 10% FBS (Jurkat) or DMEM containing 10% FBS (MDA-MB-435). On Day 1, 1×10^4 cells were seeded into one well of a 96-well white ISOPLATE™ with 0.5% FBS. The cells were cultured at 5% CO2, 37° C. overnight. On Day 2, the diluted test compounds were added into each well in a total volume of 100 μL of cell culture medium. For each cell line were set up three wells containing cells and only diluted DMSO as a negative (vehicle) control, and three wells without cells but containing the same volume and type of cell culture medium as background control. The cells were incubated at 5% CO2, 37° C. for 24 hours. On Day 3, 1 μL of [^3H]-thymidine was added into each well and incubation at 5% CO2, 37° C. was continued for another 24 hours. On Day 4, 30 μL of 50% TCA was added into each well and was incubated at 4° C. for 4 hours. Plates were washed with ddH2O four times and then air dried for 30 minutes followed by the addition of 100 μL of scintillation fluid into each well. The radioactivity was read using MICROBETA TRILUX™. The percentage of inhibition was calculated using the formula [1-(experiment reading-background reading)/(negative control reading-background reading)]×100.

[5] = test system: MDA-MB-435 cells; assay: Cell proliferation ([3H]-thymidine); assay type: cell-based; details: 48 hours, read-out: Anti-proliferation IC50, MDA-MB-435
Protocol: as §2

[6] = molecular target: T1, recombinant human PDE4B1 enzyme (Homo sapiens, UniProt Q07343); assay: PDE4B1 radiometric enzyme assay; assay type: biochemical; details: 1 μM cAMP
T1 construct: host or cells: baculoviral system
T1 sequence (Q07343 whole entry): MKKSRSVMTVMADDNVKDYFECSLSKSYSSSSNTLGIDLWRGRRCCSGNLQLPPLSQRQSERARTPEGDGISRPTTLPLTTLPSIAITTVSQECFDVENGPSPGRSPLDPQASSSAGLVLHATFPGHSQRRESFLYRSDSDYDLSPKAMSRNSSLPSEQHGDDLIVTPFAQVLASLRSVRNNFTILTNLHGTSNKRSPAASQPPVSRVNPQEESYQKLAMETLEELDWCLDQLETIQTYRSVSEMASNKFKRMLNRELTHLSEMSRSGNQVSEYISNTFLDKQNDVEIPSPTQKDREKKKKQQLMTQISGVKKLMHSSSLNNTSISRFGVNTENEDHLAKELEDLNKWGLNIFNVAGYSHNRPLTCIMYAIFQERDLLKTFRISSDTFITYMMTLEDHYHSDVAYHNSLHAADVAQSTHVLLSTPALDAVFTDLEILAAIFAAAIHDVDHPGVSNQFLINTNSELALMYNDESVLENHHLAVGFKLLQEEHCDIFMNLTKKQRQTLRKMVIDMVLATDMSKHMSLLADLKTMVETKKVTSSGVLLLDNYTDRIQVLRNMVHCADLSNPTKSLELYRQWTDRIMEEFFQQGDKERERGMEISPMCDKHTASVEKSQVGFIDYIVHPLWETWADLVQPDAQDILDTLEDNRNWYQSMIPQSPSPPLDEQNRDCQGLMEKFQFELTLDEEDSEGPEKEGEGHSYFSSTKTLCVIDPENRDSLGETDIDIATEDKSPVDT
Protocol: Assays were performed using recombinant human PDE4B1 enzyme expressed in a baculoviral system. […] The reactions were performed at 1 μM of cAMP. The test articles were each tested at 0.2 μM and 20 μM in triplicates.

Row | SMILES | pIC50 [1] | pIC50 [2] | pIC50 [3] | pIC50 [4] | pIC50 [5] | Inhibitory activity on PDE4B1 enzyme ([6]; 0.2 μM compound) | Inhibitory activity on PDE4B1 enzyme ([6]; 20 μM compound)
1 | N#Cc1ccc(/C=C/c2ccc(C3CC3)c(O)c2)cc1C#N [Compound 18] | 5.48 | 5.90 | 5.62 | – | – | – | –
2 | Oc1cc(/C=C/c2ccccc2)ccc1C1CC1 [Compound 11] | – | – | – | 5.77 | 5.37 | – | –
3 | Oc1cc(/C=C/c2c(F)cccc2F)ccc1C1CCCC1 [Compound 22] | 5.53 | 5.76 | 5.61 | – | – | – | –
4 | Oc1cc(/C=C/c2ccc(F)cc2)ccc1C1CCCCC1 [Compound 24] | 5.58 | 6.41 | 5.14 | – | – | – | –
5 | Oc1cc(/C=C/c2ccc(F)cc2)ccc1C1CCCC1 [Compound 20] | – | – | – | – | – | + (“+” is 15-30% inhibition) | +++ (“+++” is greater than 50% inhibition)
6 | N#Cc1ccc(/C=C/c2ccc(C3CC3)c(O)c2)c(C#N)c1 [Compound 17] | 5.10 | 5.75 | 5.56 | 5.86 | 5.78 | – | –
